Measurements as given in publication PMC4474874, “Effect of JAK Inhibitors on Release of CXCL9, CXCL10 and CXCL11 from Human Airway Epithelial Cells” (PLoS ONE, 2015).

Assays:
[1] = tested on: BEAS-2B cells; assay: Release of CXCL9, CXCL10 and CXCL11 from BEAS-2B cells (ELISA), inhibitors added 1h before stimulus; format: cell-based, human; details: BEAS-2B
Procedure: (§1) BEAS-2B cells (catalogue number CRL-9609) were purchased directly from American Type Culture Collection (Rockville, MD). Keratinocyte serum-free medium (K-SFM), bovine pituitary extract (BPE), and recombinant human epidermal growth factor (EGF) were purchased from Invitrogen (Paisley, UK). BEAS-2B cells were cultured in K-SFM containing 50 μg/ml BPE and 5 ng/ml EGF at 37°C in a humidified atmosphere comprising 5% (v/v) CO2 in air. Cells were cultured as monolayers in growth factor-free media for 24 h prior to stimulation. Human primary airway epithelial cells were cultured as monolayers from bronchial brushings from both male and female subjects (Table 1) and cultured in LHC-9 media (Invitrogen, Paisley, UK) in collagen (1% w/v) coated flasks. Samples were obtained from non-smokers, smokers and patients with COPD. […] The subjects were matched for age and smokers and COPD patients for smoking history (Table 1). All subjects gave informed written consent and the study was approved by the NRES London-Chelsea Research Ethics committee, study number 09/H0801/85.
(§2) Cell-free supernatants were removed 20h post-stimulation and assayed for CXCL9, CXCL10 and CXCL11 using Duoset ELISA kits (R & D Systems Europe, Abingdon, UK) according to the manufacturer’s instructions. The detection limits of these assays are 62pg/ml, 31pg/ml, and 7.8 pg/ml respectively.
(§3) Data are presented as mean ± SEM of ‘n’ independent determinations. Concentration-response curves were analysed by least-squares, non-linear iterative regression with the ‘Graphpad Prism’ curve fitting program (GraphPad software, San Diego, USA) and IC50 values were subsequently interpolated from curves of best-fit. Statistical differences were determined using the Kruskal–Wallis test followed by Dunn's multiple comparison test or a Wilcoxon signed rank test as appropriate. Values of P<0.05 were considered significant.
Media was harvested and the concentrations of CXCL9 (panels a and d), CXCL10 (panels b and e) and CXCL11 (panels c and f) were measured by ELISA. Data are presented as mean±SEM, n = 7–8.

[2] = tested on: BEAS-2B cells; assay: mRNA expression of CXCL9, CXCL10 and CXCL11 in BEAS-2B cells (Taqman RT-PCR); format: cell-based, human; details: BEAS-2B, 10^-6M, IFNγ or IFNγ + TNFα
Procedure: Total RNA was extracted from cells and reverse transcribed, as described previously. Gene expression was determined by Taqman real-time PCR on a 7500 Real Time PCR system (Applied Biosystems, Life Technologies Ltd, Paisley, UK) using PCR Master Mix Reagent and ‘assays on demand’ (Applied Biosystems). HPRT1 gene expression was used as the housekeeping gene and data presented as δδCT relative to baseline.
Gene expression of CXCL9 (panels a and b), CXCL10 (panels c and d) and CXCL11 (panels e and f) were quantified by Taqman RT-PCR. Data are presented as fold change form stimulus ± SEM; n = 3 where 1 indicates the level of mRNA induced by IFNγ or IFNγ + TNFα in the absence of inhibitors.

[3] = tested on: human primary airway epithelial cells; assay: IL-6 release from IFNγ + TNFα-stimulated human primary airway epithelial cells; format: cell-based; details: IFNγ + TNFα
Procedure: (§4) In order to determine whether any of the inhibitory effects of the JAK inhibitors could be attributed to cell death, MTT assays were performed at the end of every experiment. […] In order to address this issue, the levels of IL-6 released from cells stimulated with IFNγ + TNFα were measured.

[4] = tested on: human primary airway epithelial cells; assay: Release of CXCL9, CXCL10 and CXCL11 from human primary airway epithelial cells (ELISA); format: cell-based; details: human primary airway epithelial cells, IFNγ or IFNγ+TNFα
Procedure: as §1, §2, §3
Media was harvested and the concentrations of CXCL9 (panels a and d), CXCL10 (panels b and e) and CXCL11 (panels c and f) were measured by ELISA. Data are presented as mean ± SEM, n = 10–13.

[5] = tested on: BEAS-2B cells; assay: IL-6 release from IFNγ + TNFα-stimulated BEAS-2B cells; format: cell-based, human
Procedure: as §4

IC50 ([3]; Homo sapiens, Epithelial cell): 11 ± 7 nM
Compound: C[C@@H]1C[C@H]2[C@@H]3CCC4=CC(=O)C=C[C@]4(C)[C@@]3(F)[C@@H](O)C[C@]2(C)[C@@]1(O)C(=O)CO [dexamethasone]
effect on CXCL9 and CXCL11 release ([1]; IFNγ or IFNγ+TNFα): very limited effect | maximal inhibitory effect on release of CXCL10 ([1]; IFNγ-stimulated): ~ 50% | inhibitory effect on release of CXCL10 ([1]; stimulation with IFNγ and TNFα together): none | effect on gene transcription of CXCL9, CXCL10 and CXCL11 [2]: no effect on gene transcription | suppression of IL-6 release [3]: 50–70% | effect on CXCR3 chemokine release [4]: did not suppress | suppression of IL-6 release [5]: 50–70% | IC50 ([5]; Homo sapiens): 16 ± 8 nM
